Data from patent US20010047099A1, “4-aminopicolinates and their use as herbicides” (priority 2000, published 2001).

Key:
[1] = tested on: chickweed (Stellaria media); experiment: Postemergence herbicidal activity; assay type: in vivo; conditions: Table 1, visual, after 2 weeks; for pest or weed control at 125 ppm / pest or weed control at 250 ppm: Stellaria media, post-emergence, 336 h, read-out: Post-emergent % Control STEME; for pest or weed control at 125 ppm: rate 125 ppm
Experimental: (§1) Seeds of the desired test plant species were planted in Grace-Sierra MetroMix® 306 planting mixture, which typically has a pH of 6.0 to 6.8 and an organic matter content of about 30 percent, in plastic pots with a surface area of 64 square centimeters. When required to ensure good germination and healthy plants, a fungicide treatment and/or other chemical or physical treatment was applied. The plants were grown for 7-21 days in a greenhouse with an approximate 15 hr photoperiod which was maintained at about 23-29° C. during the day and 22-28° C. during the night. Nutrients and water were added on a regular basis and supplemental lighting was provided with overhead metal halide 1000-Watt lamps as necessary. The plants were employed for testing when they reached the first or second true leaf stage.
(§2) A weighed amount, determined by the highest rate to be tested, of each test compound was placed in a 20 mL glass vial and was dissolved in 4 mL of a 97:3 v/v (volume/volume) mixture of acetone and dimethyl sulfoxide (DMSO) to obtain concentrated stock solutions. […] The concentrated stock solutions obtained were diluted with an aqueous mixture containing acetone, water, isopropyl alcohol, DMSO, Atplus 411F crop oil concentrate, and Triton X-155 surfactant in a 48.5:39:10:1.5:1.0:0.02 v/v ratio to obtain spray solutions of known concentration. The solutions containing the highest concentration to be tested were prepared by diluting 2 mL aliquots of the stock solution with 13 mL of the mixture and lower concentrations were prepared by serial dilution of the stock solution. Approximately 1.5 mL aliquots of each solution of known concentration were sprayed evenly onto each of the test plant pots using a DeVilbiss atomizer driven by compressed air pressure of 2 to 4 psi ([…]) to obtain thorough coverage of each plant. Control plants were sprayed in the same manner with the aqueous mixture. In this test an application rate of 1 ppm results in the application of approximately 1 g/Ha.
(§3) The treated plants and control plants were placed in a greenhouse as described above and watered by sub-irrigation to prevent wash-off of the test compounds. After 2 weeks the condition of the test plants as compared with that of the untreated plants was determined visually and scored on a scale of 0 to 100 percent where 0 corresponds to no injury and 100 corresponds to complete kill.

[2] = tested on: wild buckwheat (Polygonum convolvulus); experiment: Postemergence herbicidal activity; assay type: in vivo; conditions: Table 1, visual, after 2 weeks; for pest or weed control at 125 ppm / pest or weed control at 250 ppm: Fallopia convolvulus, post-emergence, 336 h, read-out: Post-emergent % Control POLCO; for pest or weed control at 125 ppm: rate 125 ppm
Experimental: as §1, §2, §3

[3] = tested on: cocklebur (Xanthium strumarium); experiment: Postemergence herbicidal activity; assay type: in vivo; conditions: Table 1, visual, after 2 weeks; for pest or weed control at 125 ppm / pest or weed control at 250 ppm: Xanthium strumarium, post-emergence, 336 h, read-out: Post-emergent % Control XANST; for pest or weed control at 125 ppm: rate 125 ppm
Experimental: as §1, §2, §3

[4] = tested on: pigweed (Amaranthus retroflexus); experiment: Preemergence herbicidal activity; assay type: in vivo; conditions: Table 6 (headed Post-emergent; text: preemergence), after 3 weeks; for pest or weed control at 280 ppm: rate 280 ppm
From the text: (§4) Seeds of the desired test plant species were planted in a soil matrix prepared by mixing a loam soil (43 percent silt, 19 percent clay, and 38 percent sand, with a pH of about 8.1 and an organic matter content of bout 1.5 percent) and sand in a 70 to 30 ratio. The soil matrix was contained in plastic pots with a surface area of 113 square centimeters. When required to ensure good germination and healthy plants. a fungicide treatment and/or other chemical or physical treatment was applied.
(§5) A weighed amount, determined by the highest rate to be tested, of each test compound was placed in a 20 mL glass vial and was dissolved in 4 mL of a 97:3 v/v (volume/volume) mixture of acetone and dimethyl sulfoxide to obtain concentrated stock solutions. […] The stock solutions obtained were diluted with a 99.9:0.1 mixture of water and Tween® […] surfactant to obtain application solutions of known concentration. The solutions containing the highest concentration to be tested were prepared by diluting 2 mL aliquots of the stock solution with 15 mL of the mixture and lower concentrations were prepared by serial dilution of the stock solution. A 2.5 mL aliquot of each solution of known concentration was sprayed evenly onto the soil surface (113 sq. cm) of each seeded pot using a Cornwall 5.0 mL glass syringe fitted with a TeeJet TN-3 hollow cone nozzle to obtain thorough coverage of the soil in each pot. Control pots were sprayed in the same manner with the aqueous mixture.
(§6) The treated pots and control pots were placed in a greenhouse maintained with an approximate 15 hr photoperiod and temperatures of about 23-29° C. during the day and 22-28° C. during the night. Nutrients and water were added on a regular basis and supplemental lighting was provided with overhead metal halide 1000-Watt lamps as necessary. The water was added by top-irrigation. After 3 weeks the condition of the test plants that germinated and grew as compared with that of the untreated plants that germinated and grew was determined visually and scored on a scale of 0 to 100 percent where 0 corresponds to no injury and 100 corresponds to complete kill or no germination.

[5] = tested on: velvetleaf (Abutilon theophrasti); experiment: Preemergence herbicidal activity; assay type: in vivo; conditions: Table 6 (headed Post-emergent; text: preemergence), after 3 weeks; for pest or weed control at 280 ppm: rate 280 ppm
From the text: as §4, §5, §6

[6] = tested on: morningglory (Ipomoea hederacea); experiment: Preemergence herbicidal activity; assay type: in vivo; conditions: Table 6 (headed Post-emergent; text: preemergence), after 3 weeks; for pest or weed control at 280 ppm: rate 280 ppm
From the text: as §4, §5, §6

[7] = Amaranthus retroflexus, 504 h, rate 560 ppm, read-out: % Control AMARE
[8] = Abutilon theophrasti, 504 h, rate 560 ppm, read-out: % Control ABUTH
[9] = Ipomoea, 504 h, rate 560 ppm, read-out: % Control IPOHE
[10] = Amaranthus retroflexus, 504 h, read-out: % Control AMARE
[11] = Abutilon theophrasti, 504 h, read-out: % Control ABUTH
[12] = Ipomoea, 504 h, read-out: % Control IPOHE

Row | SMILES | melting point | pest or weed control at 560 ppm [4, 7] [%] | pest or weed control at 560 ppm [5, 8] [%] | pest or weed control at 560 ppm [6, 9] [%] | pest or weed control at 250 ppm ([1]; rate 250 ppm) [%] | pest or weed control at 250 ppm ([2]; rate 250 ppm) [%] | pest or weed control at 250 ppm ([3]; rate 250 ppm) [%] | further results
1 | Nc1cc(Cl)nc(C(=O)O)c1Br [Compound 44, 4-Amino-3-bromo-6-chloropyridine-2-carboxylic acid] | 175 °C (dec.) | 100 | 100 | 100 |  |  |  | pest or weed control at 125 ppm [1]: 90%; pest or weed control at 125 ppm [2]: 95%; pest or weed control at 125 ppm [3]: 90%
2 | O=C(O)c1nc(Cl)cc([N+](=O)[O-])c1Cl [Compound 39, 4-Nitro-3,6-dichloropyridine-2-carboxylic acid] | 192 to 193 °C | 100 | 100 | 100 |  |  |  | pest or weed control at 125 ppm [1]: 30%; pest or weed control at 125 ppm [2]: 90%; pest or weed control at 125 ppm [3]: 85%
3 | Nc1c(Cl)c(C(=O)O)nc(C(F)(F)F)c1Cl [Compound 45, 4-Amino-3,5-dichloro-6-trifluoromethylpyridine-2-carboxylic acid] | 178 °C (dec.) |  |  |  | 0 | 80 | 90 | pest or weed control at 125 ppm ([4]; Amaranthus retroflexus, 504 h, rate 125 ppm, read-out: % Control AMARE): 100%; pest or weed control at 125 ppm ([5]; Abutilon theophrasti, 504 h, rate 125 ppm, read-out: % Control ABUTH): 90%; pest or weed control at 125 ppm ([6]; Ipomoea, 504 h, rate 125 ppm, read-out: % Control IPOHE): 100%
4 | CCCCOCCOC(=O)c1nc(Cl)cc(N)c1Cl (hydrate or solvate) [Compound 10, butoxyethyl 4-amino-3,6-dichloropyridine-2-carboxylate] | 64 to 67 °C |  |  |  |  |  |  | 
5 | CCCCCOC(=O)c1nc(Cl)cc(N)c1Cl [Compound 8, n-pentyl 4-amino-3,6-dichloropyridine-2-carboxylate] | 71 to 73 °C |  |  |  | 90 | 100 | 100 | pest or weed control at 280 ppm [4, 10]: 100%; pest or weed control at 280 ppm [5, 11]: 100%; pest or weed control at 280 ppm [6, 12]: 100%
6 | COC(=O)c1nc(Cl)c([N+](=O)[O-])c(N)c1Cl [Compound 25, Methyl 4-amino-3,6-dichloro-5-nitropyridine-2-carboxylate] | 127 to 128 °C |  |  |  | 50 | 50 | 60 | 
7 | Cc1c(Br)nc(C(=O)O)c(Cl)c1N=[N+]=[N-] [Compound 38, Methyl 4-azido-6-bromo-3-chloropyridine-2-carboxylic acid] | 84 to 86 °C |  |  |  |  |  |  | 
8 | CCCCC(CC)COC(=O)c1nc(Cl)cc(N)c1Cl (centres unmarked) [Compound 2, 2-Ethylhexyl 4-amino-3,6-dichloropyridine-2-carboxylate] | 55 °C |  |  |  | 80 | 100 | 95 | pest or weed control at 280 ppm [4, 10]: 100%; pest or weed control at 280 ppm [5, 11]: 100%; pest or weed control at 280 ppm [6, 12]: 100%
9 | Nc1cc(Br)nc(C(=O)O)c1Br [Compound 17, 4-Amino-3,6-dibromopyridine-2-carboxylic acid] | 205 °C (dec.) | 100 | 100 | 100 | 80 | 100 | 100 | 
10 | CC(C)Nc1cc(Cl)nc(C(=O)O)c1Cl [Compound 28, 4-N-isopropylamino-3,6-dichloropyridine-2-carboxylic acid] |  |  |  |  |  |  |  | Post-emergent % Control STEME ([1]; rate 250 ppm): 90%; Post-emergent % Control POLCO ([2]; rate 250 ppm): 95%; Post-emergent % Control XANST ([3]; rate 250 ppm): 95%; % Control AMARE ([4]; rate 560 ppm): 100%; % Control ABUTH ([5]; rate 560 ppm): 100%; % Control IPOHE ([6]; rate 560 ppm): 100%

Second part, led by results:

Row | melting point | SMILES | pest or weed control at 560 ppm [4, 7] [%] | pest or weed control at 560 ppm [5, 8] [%] | pest or weed control at 560 ppm [6, 9] [%] | pest or weed control at 250 ppm ([1]; rate 250 ppm) [%] | pest or weed control at 250 ppm ([2]; rate 250 ppm) [%] | pest or weed control at 250 ppm ([3]; rate 250 ppm) [%] | further results
11 | 169 °C | Cc1cccc(Oc2cc(N)c(Cl)c(C(=O)O)n2)c1 [Compound 52, 4-amino-3-chloro-6-(3-methylphenoxy)-pyridine-2-carboxylic acid] | 20 | 50 | 70 | 20 | 90 | 70 | 
12 | 196 °C | Nc1cc(Oc2cc(Cl)cc(Cl)c2)nc(C(=O)O)c1Cl [Compound 47, 4-Amino-3-chloro-6-(3,5-dichlorophenoxy)pyridine-2-carboxylic acid] |  |  |  | 100 | 100 | 100 | pest or weed control at 280 ppm [4, 10]: 100%; pest or weed control at 280 ppm [5, 11]: 95%; pest or weed control at 280 ppm [6, 12]: 0%
13 | 176 °C | Nc1cc(Oc2cccc(Cl)c2)nc(C(=O)O)c1Cl [Compound 53, 4-amino-3-chloro-6-(3-chlorophenoxy)-pyridine-2-carboxylic acid] | 0 | 100 | 100 | 100 | 100 | 100 | 
14 | 104 to 106 °C | CC(C)COc1nc(C(=O)O)c(Cl)c(N)c1Cl [Compound 56, 4-Amino-3,5-dichloro-6-(2-methylpropoxy)pyridine-2-carboxylic acid] | 0 | 40 | 0 | 30 | 20 | 85 | 
15 | 158 to 160 °C | Nc1c(Cl)c(Oc2ccccc2)nc(C(=O)O)c1Cl [Compound 54, 4-Amino-3,5-dichloro-6-phenoxypyridine-2-carboxylic acid] |  |  |  | 0 | 40 | 100 | pest or weed control at 280 ppm [4, 10]: 10%; pest or weed control at 280 ppm [5, 11]: 50%; pest or weed control at 280 ppm [6, 12]: 41%
